Measurements as given in US9839629B2, “Inhibitors of the renal outer medullary potassium channel” (Merck Sharp & Dohme Corp., priority 2013, dated 2017).
pIC50: −log10 of the molar value.

What follows are molecules tested against T1, ROMK (Kir1.1) channel (Homo sapiens, UniProt P48048) (assay: Thallium Flux Assay).
T1 sequence (P48048 1-391): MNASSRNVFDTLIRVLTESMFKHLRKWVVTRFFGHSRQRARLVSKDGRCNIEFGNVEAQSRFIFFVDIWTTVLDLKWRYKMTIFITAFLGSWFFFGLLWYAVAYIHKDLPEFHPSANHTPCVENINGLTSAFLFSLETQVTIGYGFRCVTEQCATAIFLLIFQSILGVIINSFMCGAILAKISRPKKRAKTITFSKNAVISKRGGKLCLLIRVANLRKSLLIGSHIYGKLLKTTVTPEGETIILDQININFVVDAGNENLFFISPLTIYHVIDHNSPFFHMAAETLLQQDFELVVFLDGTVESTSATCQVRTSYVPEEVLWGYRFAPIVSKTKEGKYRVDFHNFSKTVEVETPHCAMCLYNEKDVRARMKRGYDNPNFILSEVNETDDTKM
Assay type: cell-based
Protocol: A Thallium Flux Assay was performed on each of the final product compounds in the Examples. When the final product of an Example was an HCl salt, the salt was run in the Assay. This assay has been described previously; see, e.g., PCT Published Application WO 2013/062900.
With `CC1=C(N2CCC3(CCN(C[C@H](O)c4ccc(-n5cnnn5)cc4F)CC3)CC2)COC1=O` [Example 53, (R)-4-(9-(2-(2-fluoro-4-(1H-tetrazol-1-yl)phenyl)-2-hydroxyethyl)-3,9-diazaspiro[5.5]undecan-3-yl)-3-methylfuran-2(5H)-one] the pIC50 was 7.85. For `CC1=C(N2CCC3(CCN(C[C@@H](O)c4ccc(-n5cnnn5)cc4F)CC3)CC2)COC1=O` [Example 54, (S)-4-(9-(2-(2-fluoro-4-(1H-tetrazol-1-yl)phenyl)-2-hydroxyethyl)-3,9-diazaspiro[5.5]undecan-3-yl)-3-methylfuran-2(5H)-one], the pIC50 was 8.10. `CC1=C(N2CCC3(CCN(C[C@H](O)c4ccc(-n5cnnn5)cc4C)CC3)CC2)COC1=O` [Example 55, (R)-4-(9-(2-hydroxy-2-(2-methyl-4-(1H-tetrazol-1-yl)phenyl)ethyl)-3,9-diazaspiro[5.5]undecan-3-yl)-3-methylfuran-2(5H)-one] was tested, and the pIC50 was 7.96. In the case of `CC1=C(N2CCC3(CCN(C[C@@H](O)c4ccc(-n5cnnn5)cc4C)CC3)CC2)COC1=O` [Example 56, (S)-4-(9-(2-hydroxy-2-(2-methyl-4-(1H-tetrazol-1-yl)phenyl)ethyl)-3,9-diazaspiro[5.5]undecan-3-yl)-3-methylfuran-2(5H)-one], the pIC50 was 7.96. With `CC1=C(N2CCC3(CC2)CCN([C@H](CO)c2ccc(-n4cnnn4)cc2C)CC3)COC1=O` [Example 57, (S)-4-(9-(2-hydroxy-1-(2-methyl-4-(1H-tetrazol-1-yl)phenyl)ethyl)-3,9-diazaspiro[5.5]undecan-3-yl)-3-methylfuran-2(5H)-one] the pIC50 was 6.63. Molecule `CC1=C(N2CCC3(CC2)CCN([C@@H](CO)c2ccc(-n4cnnn4)cc2C)CC3)COC1=O` [Example 58, (R)-4-(9-(2-hydroxy-1-(2-methyl-4-(1H-tetrazol-1-yl)phenyl)ethyl)-3,9-diazaspiro[5.5]undecan-3-yl)-3-methylfuran-2(5H)-one] has a pIC50 of 6.59. In the case of `CC1=C(N2CCC3(CCN(C[C@H](O)c4cccc(-n5cnnn5)c4)CC3)CC2)COC1=O` [Example 59, (R)-4-(9-(2-(3-(1H-tetrazol-1-yl)phenyl)-2-hydroxyethyl)-3,9-diazaspiro[5.5]undecan-3-yl)-3-methylfuran-2(5H)-one], the pIC50 was 7.66. Molecule `CC1=C(N2CCC3(CCN(C[C@@H](O)c4cccc(-n5cnnn5)c4)CC3)CC2)COC1=O` [Example 60, (S)-4-(9-(2-(3-(1H-tetrazol-1-yl)phenyl)-2-hydroxyethyl)-3,9-diazaspiro[5.5]undecan-3-yl)-3-methylfuran-2(5H)-one] has a pIC50 of 7.49. `CC1=C(N2CCC3(CCN(C[C@H](O)c4ccnc(-n5cnnn5)c4)CC3)CC2)COC1=O` [Example 61, (R)-4-(9-(2-(2-(1H-tetrazol-1-yl)pyridin-4-yl)-2-hydroxyethyl)-3,9-diazaspiro[5.5]undecan-3-yl)-3-methylfuran-2(5H)-one] was tested, and the pIC50 was 7.48. Molecule `CC1=C(N2CCC3(CCN(C[C@@H](O)c4ccnc(-n5cnnn5)c4)CC3)CC2)COC1=O` [Example 62, (S)-4-(9-(2-(2-(1H-tetrazol-1-yl)pyridin-4-yl)-2-hydroxyethyl)-3,9-diazaspiro[5.5]undecan-3-yl)-3-methylfuran-2(5H)-one] has a pIC50 of 7.41. For `CC1=C(N2CCC3(CCN(C[C@H](O)c4cncc(-n5cnnn5)c4)CC3)CC2)COC1=O` [Example 63, (R)-4-(9-(2-(5-(1H-tetrazol-1-yl)pyridin-3-yl)-2-hydroxyethyl)-3,9-diazaspiro[5.5]undecan-3-yl)-3-methylfuran-2(5H)-one], the pIC50 was 6.71. With `CC1=C(N2CCC3(CCN(C[C@@H](O)c4cncc(-n5cnnn5)c4)CC3)CC2)COC1=O` [Example 64, (S)-4-(9-(2-(5-(1H-tetrazol-1-yl)pyridin-3-yl)-2-hydroxyethyl)-3,9-diazaspiro[5.5]undecan-3-yl)-3-methylfuran-2(5H)-one] the pIC50 was 6.93. With `CC1=C(N2CCC3(CCN(C[C@H](O)c4cncc(-n5cnnn5)n4)CC3)CC2)COC1=O` [Example 65, (S)-4-(9-(2-(6-(1H-tetrazol-1-yl)pyrazin-2-yl)-2-hydroxyethyl)-3,9-diazaspiro[5.5]undecan-3-yl)-3-methylfuran-2(5H)-one] the pIC50 was 6.96. In the case of `CC1=C(N2CCC3(CCN(C[C@@H](O)c4cncc(-n5cnnn5)n4)CC3)CC2)COC1=O` [Example 66, (R)-4-(9-(2-(6-(1H-tetrazol-1-yl)pyrazin-2-yl)-2-hydroxyethyl)-3,9-diazaspiro[5.5]undecan-3-yl)-3-methylfuran-2(5H)-one], the pIC50 was 6.96. In the case of `CC1=C(N2CCC3(CCN(C[C@H](O)c4cc(-n5cnnn5)ccn4)CC3)CC2)COC1=O` [Example 67, (S)-4-(9-(2-(4-(1H-tetrazol-1-yl)pyridin-2-yl)-2-hydroxyethyl)-3,9-diazaspiro[5.5]undecan-3-yl)-3-methylfuran-2(5H)-one], the pIC50 was 6.52. `CC1=C(N2CCC3(CCN(C[C@@H](O)c4cc(-n5cnnn5)ccn4)CC3)CC2)COC1=O` [Example 68, (R)-4-(9-(2-(4-(1H-tetrazol-1-yl)pyridin-2-yl)-2-hydroxyethyl)-3,9-diazaspiro[5.5]undecan-3-yl)-3-methylfuran-2(5H)-one] gave a pIC50 of 6.73. With `CC1=C(N2CCC3(CCN(C[C@@H](O)c4ccccc4-n4cnnn4)CC3)CC2)COC1=O` [Example 69, (S)-4-(9-(2-(2-(1H-tetrazol-1-yl)phenyl)-2-hydroxyethyl)-3,9-diazaspiro[5.5]undecan-3-yl)-3-methylfuran-2(5H)-one] the pIC50 was 6.20. Work on `Cc1nc(-n2cnnn2)ccc1[C@@H](O)CN1CCC2(CC1)CCN(C1=CC(=O)CC1)CC2` [Example 70, (R)-3-(9-(2-hydroxy-2-(2-methyl-6-(1H-tetrazol-1-yl)pyridin-3-yl)ethyl)-3,9-diazaspiro[5.5]undecan-3-yl)cyclopent-2-enone] yielded a pIC50 of 7.31. `Cc1nc(-n2cnnn2)ccc1[C@H](O)CN1CCC2(CC1)CCN(C1=CC(=O)CC1)CC2` [Example 71, (S)-3-(9-(2-hydroxy-2-(2-methyl-6-(1H-tetrazol-1-yl)pyridin-3-yl)ethyl)-3,9-diazaspiro[5.5]undecan-3-yl)cyclopent-2-enone] was tested, and the pIC50 was 6.61. Molecule `Cc1c([C@@H](O)CN2CCC3(CC2)CCN(C2=CC(=O)CC2)CC3)ccc2c1COC2=O` [Example 72, (R)-5-(1-hydroxy-2-(9-(3-oxocyclopent-1-en-1-yl)-3,9-diazaspiro[5.5]undecan-3-yl)ethyl)-4-methylisobenzofuran-1(3H)-one] has a pIC50 of 6.36. `Cc1cc(-n2cnnn2)ccc1[C@@H](O)CN1CCC2(CC1)CCN(C1=CC(=O)CC1)CC2` [Example 73, (R)-3-(9-(2-hydroxy-2-(2-methyl-4-(1H-tetrazol-1-yl)phenyl)ethyl)-3,9-diazaspiro[5.5]undecan-3-yl)cyclopent-2-enone] gave a pIC50 of 6.75. Work on `CC1=C(N2CCC3(CCN(C[C@H](O)c4ccc(-n5cnnn5)nc4C)CC3)CC2)CCC1=O` [Example 74, (R)-3-(9-(2-hydroxy-2-(2-methyl-6-(1H-tetrazol-1-yl)pyridin-3-yl)ethyl)-3,9-diazaspiro[5.5]undecan-3-yl)-2-methylcyclopent-2-enone] yielded a pIC50 of 7.16. In the case of `CC1=C(N2CCC3(CCN(C[C@@H](O)c4ccc(-n5cnnn5)nc4C)CC3)CC2)CCC1=O` [Example 75, (S)-3-(9-(2-hydroxy-2-(2-methyl-6-(1H-tetrazol-1-yl)pyridin-3-yl)ethyl)-3,9-diazaspiro[5.5]undecan-3-yl)-2-methylcyclopent-2-enone], the pIC50 was 6.55. For `CC1=C(N2CCC3(CCN(C[C@H](O)c4ccc5c(c4C)COC5=O)CC3)CC2)CCC1=O` [Example 76, (R)-5-(1-hydroxy-2-(9-(2-methyl-3-oxocyclopent-1-en-1-yl)-3,9-diazaspiro[5.5]undecan-3-yl)ethyl)-4-methylisobenzofuran-1(3H)-one], the pIC50 was 6.96. `CC1=C(N2CCC3(CCN(C[C@H](O)c4ccc(-n5cnnn5)cc4C)CC3)CC2)CCC1=O` [Example 77, (R)-3-(9-(2-hydroxy-2-(2-methyl-4-(1H-tetrazol-1-yl)phenyl)ethyl)-3,9-diazaspiro[5.5]undecan-3-yl)-2-methylcyclopent-2-enone] gave a pIC50 of 6.85. Molecule `Cc1c([C@@H](O)CN2CCC3(CC2)CCN(c2c(C)c(=O)c2=O)CC3)ccc2c1COC2=O` [Example 78, (R)-3-(9-(2-hydroxy-2-(4-methyl-1-oxo-1,3-dihydroisobenzofuran-5-yl)ethyl)-3,9-diazaspiro[5.5]undecan-3-yl)-4-methylcyclobut-3-ene-1,2-dione] has a pIC50 of 7.52. Molecule `CCc1c(N2CCC3(CCN(C[C@H](O)c4ccc5c(c4C)COC5=O)CC3)CC2)c(=O)c1=O` [Example 79, (R)-3-ethyl-4-(9-(2-hydroxy-2-(4-methyl-1-oxo-1,3-dihydroisobenzofuran-5-yl)ethyl)-3,9-diazaspiro[5.5]undecan-3-yl)cyclobut-3-ene-1,2-dione] has a pIC50 of 6.96. In the case of `Cc1c([C@@H](O)CN2CCC3(CC2)CCN(c2c(C4CC4)c(=O)c2=O)CC3)ccc2c1COC2=O` [Example 80, (R)-3-cyclopropyl-4-(9-(2-hydroxy-2-(4-methyl-1-oxo-1,3-dihydroisobenzofuran-5-yl)ethyl)-3,9-diazaspiro[5.5]undecan-3-yl)cyclobut-3-ene-1,2-dione], the pIC50 was 6.85. In the case of `Cc1c(N2CCC3(CCN(C[C@H](O)c4ccc(-n5cnnn5)nc4)CC3)CC2)c(=O)c1=O` [Example 81, (R)-3-(9-(2-(6-(1H-tetrazol-1-yl)pyridin-3-yl)-2-hydroxyethyl)-3,9-diazaspiro[5.5]undecan-3-yl)-4-methylcyclobut-3-ene-1,2-dione], the pIC50 was 7.82.
